From patent US11998008B2, “Pesticides and methods of controlling pests” (The State of Israel, Ministry of Agriculture & Rural …, priority 2017, dated 2024)
Where two headings read alike, the source gives them in different places.

What was measured:
P. digitatum = assay: Fungicidal activity assay on PDA in sealed Petri dish (growth inhibition and mortality); type: cell-based, Penicillium digitatum; conditions: for MFC: Penicillium digitatum, read-out: M - Mortality, minimal concentration that killed the fungus; for MFC / M - Mortality, minimal concentration that killed the fungus: NA + number = still viable in the highest concentration tested (given as >); for I - Inhibition class: 2 days; for I - Inhibition, minimal concentration that inhibited the growth: concentration to which the class above belongs
Experimental: (§1) In exemplary procedures, the fungicidial activity of the compounds listed in Table 2 were examined by activity assays as follow: Petri dishes, 90 mm in diameter, with air volume of 80 mL, contained 10-12 mL of growth medium comprising potato dextrose agar (PDA) (Acumedia, Lansing, Michigan, USA) amended with tetracycline at 12 μg/mL. Each compound was placed on a disconnected cover from an Eppendorf tube that was located in the middle of the Petri dish and a hyphae-containing plug of each test fungus was added to the culture plate. In exemplary procedures, the tested compounds trans-2-heptenal, trans-2-octenal were tested in comparison with octanal, trans-2-octen-1-ol, methyl trans-2-octenoate, trans-3-octen-2-one and 3-pentenenitrile. In addition, cyclic ketones as 2-cyclopenten-1-one, 2-cyclohexen-1-one and α-tetralone were also examined. Then, the culture plate was sealed with parafilm and incubated at room-temperature for 2 days, after which the growth of the test fungi in those dishes was compared with those in the test compound-free control dishes. At the end of the assay, the viability of each test fungus was evaluated by transferring inoculum plugs to fresh PDA plates and observing the growth that developed within the next 2 days. The test fungi used in this study included but were not limited to Alternaria alternata, Botrytis cinerea, Sclerotinia rolfsii, Penicillium digitatum, Fusarium oxysporum f. sp. radicis-cucumerinum and Rhizoctonia solani.

B. cinerea = assay: as above; type: cell-based, Botrytis cinerea; conditions: for MFC: Botrytis cinerea, read-out: M - Mortality, minimal concentration that killed the fungus; for MFC / M - Mortality, minimal concentration that killed the fungus: NA + number = still viable in the highest concentration tested (given as >); for I - Inhibition class: 2 days; for I - Inhibition, minimal concentration that inhibited the growth: concentration to which the class above belongs
Experimental: as §1

A. alternata = assay: as above; type: cell-based, Alternaria alternata; conditions: for MFC: Alternaria alternata, read-out: M - Mortality, minimal concentration that killed the fungus; for MFC / M - Mortality, minimal concentration that killed the fungus: NA + number = still viable in the highest concentration tested (given as >); for I - Inhibition class: 2 days; for I - Inhibition, minimal concentration that inhibited the growth: concentration to which the class above belongs
Experimental: as §1

S. rolfsii = assay: as above; type: cell-based, Sclerotinia rolfsii; conditions: for MFC: Agroathelia rolfsii, read-out: M - Mortality, minimal concentration that killed the fungus; for I - Inhibition class: 2 days; for I - Inhibition, minimal concentration that inhibited the growth: concentration to which the class above belongs
Experimental: as §1, with “Each” for “In exemplary procedures, the fungicidial activity of the compounds listed in Table 2 were examined by activity assays as follow: Petri dishes, 90 mm in diameter, with air volume of 80 mL, contained 10-12 mL of growth medium comprising potato dextrose agar (PDA) (Acumedia, Lansing, Michigan, USA) amended with tetracycline at 12 μg/mL. Each”

[1] = system: F. oxysporum f. sp. radicis-cucumerium; assay: as above; type: cell-based, Fusarium oxysporum f. sp. radicis-cucumerinum; conditions: for MFC: Fusarium oxysporum, read-out: M - Mortality, minimal concentration that killed the fungus
Experimental: as §1, with “Each” for “In exemplary procedures, the fungicidial activity of the compounds listed in Table 2 were examined by activity assays as follow: Petri dishes, 90 mm in diameter, with air volume of 80 mL, contained 10-12 mL of growth medium comprising potato dextrose agar (PDA) (Acumedia, Lansing, Michigan, USA) amended with tetracycline at 12 μg/mL. Each”

R. solani = assay: microbe, parasite or virus in culture; type: cell-based; conditions: R. solani; for MFC: Rhizoctonia solani, read-out: M - Mortality, minimal concentration that killed the fungus
Experimental: as §1, with “Each” for “In exemplary procedures, the fungicidial activity of the compounds listed in Table 2 were examined by activity assays as follow: Petri dishes, 90 mm in diameter, with air volume of 80 mL, contained 10-12 mL of growth medium comprising potato dextrose agar (PDA) (Acumedia, Lansing, Michigan, USA) amended with tetracycline at 12 μg/mL. Each”

[2] = system: Meloidogyne javanica second stage juveniles (J2s); assay: Nematocidal activity: viability of J2 nematodes after 2 days exposure to the compound in a sealed box; type: in vivo; conditions: for Activity: the most effective concentration: concentration to which the class of the same cell belongs
From the text: In exemplary procedures, the sedentary root-knot nematode from the genus Meloidogyne javanica second stage juveniles (J2s) was propagated on greenhouse-grown nematode-susceptible tomato Lycopersicon esculentum cv. ‘Avigail 870’ (Hazera, Shikmim, Israel), and nematode eggs were bulk-extracted from the roots with 0.05% (v/v) sodium hypochlorite (NaOCl) followed by sucrose flotation and successive sievings through nylon filters of 300, 120, 60, and 30 μm mesh sizes (AD Sinun Technologies, Petach Tikvah, Israel). For hatching J2, extracted eggs were placed on 30-μm sieves (AD Sinun Technologies) in 0.01 M MES (2-(N-morpholino) ethanesulfonic acid hydrate) pH 6.5 buffer under aseptic conditions in darkness for 5 days, and hatching J2s were collected for further experiments.
Seven vials, each containing 300 J2 nematodes with 0.5 mL of 0.01 M 2-(N-morpholino)ethanesulfonic acid (MES) buffer, were exposed to cyclic ketone compounds in order to examine their nematocidal activity and reduction in viability. In addition, a humid environment in a sealed 1 L box was maintained by addition 5 ml of distilled H2O to a 50-mm Petri plate. The box was sealed after compound addition into each 50-mm Petri plate together with 5-250 mg of perlite particles and incubated for 2 days in the dark at 25±1° C. C5 and C6 saturated and α,β-unsaturated cyclic ketones were tested for their nematocidal activity. The J2 nematodes viability was examined following exposure to the cyclic ketone compounds, by a straightforward small-scale nematode extraction method, based on the traditional Baermann funnel method. Briefly, all nematode suspensions were loaded onto 30-μm (AD Sinun Technologies) filters (1.0-1.5 cm height, 1.1-2.0 cm^3 internal area), and the nematodes were washed twice with 300 μL of 0.01 M MES buffer in order to remove any residues. Then, filters holding nematodes were placed into 15 mL Falcon centrifuge tubes, each containing 900 μL of 0.01 M of MES buffer. These filters allow active passage of only living J2s while paralyzed or dead nematodes remain on top of the filter. The whole apparatus including the filter holding the nematodes and the Falcon tubes were placed in the dark for 3 h at 25±1° C. Then, the filters were removed and the viable nematodes, which were able to actively cross the filter toward the 0.01 M of MES buffer, were collected from the Falcon tube and counted using a Nematode Counting Slide (Chalex LLC, Portland, OR, USA) and a SV11 stereomicroscope (Zeiss, Jena, Germany).
Data were analyzed by the JMP 12 software package (SAS Inc., Cary, NC, USA). Mean numbers of viable J2s under various conditions were subjected to one-way analysis of variance (ANOVA), followed by the Tukey-Kramer multiple comparison test, with significance set at P<0.05.

test fungi = assay: Fungicidal activity assay on PDA, summaries over the test fungi; type: cell-based; conditions: for fungicidal activity in words: comparison within the series
Experimental: as §1

[3] = S. rolfsii, NA + number = still viable in the highest concentration tested (given as >)
[4] = NA + number = still viable in the highest concentration tested (given as >)
[5] = concentration to which the class above belongs

Compound	MFC (P. digitatum)	MFC (B. cinerea)	MFC (A. alternata)	MFC (S. rolfsii; [3])	MFC [1, 4]	MFC (R. solani; [4])	also measured
CC(C)CC(=O)CC(C)C [2,6-dimethyl-4-heptanone]	> 2500 µg/mL	> 2500 µg/mL	> 2500 µg/mL	2500 µg/mL			
CC=CCC#N [3-pentenenitrile]				> 25 µg/mL	> 25 µg/mL	> 25 µg/mL	
CCCC(=O)CCC [4-heptanone]	> 2500 µg/mL	1250 µg/mL	2500 µg/mL	2500 µg/mL			
CC(C)=CCCC(C)=CC=O [Citral]	> 125 µg/mL	25 µg/mL	25 µg/mL	25 µg/mL			
O=C1CCCCC1 [Cyclohexanone]				500 µg/mL	> 250 µg/mL	> 250 µg/mL	nematocidal activity in words ([2]; comparison within the series): nematocidal effects at substantially higher concentrations
CCCCCCCCCC=O [Decanal]				> 25 µg/mL	> 25 µg/mL	> 25 µg/mL	
CCOC(=O)C=Cc1ccccc1 [Ethyl cinnamate]	> 1250 µg/mL	> 1250 µg/mL	> 1250 µg/mL	> 1250 µg/mL			
CC(C)=CCCC(C)=CCCC(C)=CCO [Farnesol]	> 1250 µg/mL	> 1250 µg/mL	> 1250 µg/mL	> 1250 µg/mL			
CCCCCCCCCCCC=O [Lauric aldehyde]							I - Inhibition class ([1]; 2 days): NI (<50% growth inhibition); M - Mortality, minimal concentration that killed the fungus [1, 4]: > 25 ppm; I - Inhibition, minimal concentration that inhibited the growth [1, 5]: 25 ppm; I - Inhibition class (R. solani; 2 days): NI (<50% growth inhibition); M - Mortality, minimal concentration that killed the fungus (R. solani; [4]): > 25 ppm; I - Inhibition, minimal concentration that inhibited the growth (R. solani; [5]): 25 ppm; fungicidal activity in words (test fungi): lower activity; I - Inhibition class (S. rolfsii; S. rolfsii): NI (<50% growth inhibition); M - Mortality, minimal concentration that killed the fungus (S. rolfsii; [3]): > 25 ppm; I - Inhibition, minimal concentration that inhibited the growth (S. rolfsii; S. rolfsii): 25 ppm
CCCCC/C=C/C(=O)OC [Methyl trans-2-octenoate]	125 µg/mL	125 µg/mL	125 µg/mL	125 µg/mL			concentration that completely inhibited the fungi growth (test fungi; dependent on the fungus tested): 125 ppm
CCCCCCCCC=O [Nonanal]				25 µg/mL	> 25 µg/mL	> 25 µg/mL	
CCCCCCCC=O [Octanal]				> 25 µg/mL	> 25 µg/mL	12.5 µg/mL	fungicidal activity in words (test fungi): less fungicidal efficiency
COc1ccc(C=O)cc1 [p-Anisaldehyde]							MFC (S. rolfsii): > 1250 µg/mL
CCCCCCC/C=C/C=O [trans-2-decenal]							fungicidal activity in words (test fungi): lower activity
CCCC/C=C/C=O [trans-2-heptenal]	12.5 µg/mL	125 µg/mL	12.5 µg/mL	6.25 µg/mL	12.5 µg/mL	12.5 µg/mL	concentration that completely inhibited the fungi growth (test fungi; dependent on the fungus tested): 6.25-25 ppm; concentrations at which fungi were not viable (test fungi; dependent on the fungus tested): 6.25-125 ppm
CCC/C=C/C=O [trans-2-hexen-1-al]				12.5 µg/mL	25 µg/mL	12.5 µg/mL	
CCCCCC/C=C/C=O [trans-2-nonenal]				> 25 µg/mL	6.25 µg/mL	> 25 µg/mL	
CCCCC/C=C/CO [trans-2-octen-1-ol]	50 µg/mL	500 µg/mL	125 µg/mL	80 µg/mL			concentration that completely inhibited the fungi growth (test fungi; dependent on the fungus tested): 50 ppm
CCCCC/C=C/C(=O)O [trans-2-octenoic acid]	> 125 µg/mL	> 125 µg/mL	> 125 µg/mL	> 125 µg/mL			
CC/C=C/C=O [trans-2-pentenal]	25 µg/mL	25 µg/mL	25 µg/mL	25 µg/mL	25 µg/mL	25 µg/mL	
CCCC/C=C/C(C)=O [trans-3-octen-2-one]	50 µg/mL	50 µg/mL	50 µg/mL	50 µg/mL			concentration that completely inhibited the fungi growth (test fungi; dependent on the fungus tested): 50 ppm
O=C/C=C/c1ccccc1 [trans-cinnamaldehyde]				> 1250 µg/mL			
R-(−)-Carvone							I - Inhibition class (P. digitatum): MI (Medium inhibition - 76-99% of growth inhibition); M - Mortality, minimal concentration that killed the fungus (P. digitatum): > 1250 ppm; I - Inhibition, minimal concentration that inhibited the growth (P. digitatum): 625 ppm; Activity: the most effective concentration [2]: 250 ppm; I - Inhibition class (B. cinerea): MI (Medium inhibition - 76-99% of growth inhibition); M - Mortality, minimal concentration that killed the fungus (B. cinerea): > 1250 ppm; I - Inhibition, minimal concentration that inhibited the growth (B. cinerea): 25 ppm; I - Inhibition class (A. alternata): SI (Strong inhibition - 100% of growth inhibition compared to control.); M - Mortality, minimal concentration that killed the fungus (A. alternata): > 1250 ppm; I - Inhibition, minimal concentration that inhibited the growth (A. alternata): 125 ppm; I - Inhibition class (S. rolfsii; S. rolfsii): MI (Medium inhibition - 76-99% of growth inhibition); M - Mortality, minimal concentration that killed the fungus (S. rolfsii; [3]): > 1250 ppm; I - Inhibition, minimal concentration that inhibited the growth (S. rolfsii; S. rolfsii): 125 ppm
trans-2-heptanol							I - Inhibition class (P. digitatum): SI (Strong inhibition - 100% of growth inhibition compared to control.); M - Mortality, minimal concentration that killed the fungus (P. digitatum): 1250 ppm; I - Inhibition, minimal concentration that inhibited the growth (P. digitatum): 125 ppm; Activity: reduction in J2s viability relative to non exposed control J2s (class) ([2]; at the concentration given, 2 days incubation): L (51-75% reduction in viability); Activity: the most effective concentration [2]: 500 ppm; I - Inhibition class (B. cinerea): SI (Strong inhibition - 100% of growth inhibition compared to control.); M - Mortality, minimal concentration that killed the fungus (B. cinerea): 500 ppm; I - Inhibition, minimal concentration that inhibited the growth (B. cinerea): 125 ppm; I - Inhibition class (A. alternata): SI (Strong inhibition - 100% of growth inhibition compared to control.); M - Mortality, minimal concentration that killed the fungus (A. alternata): 500 ppm; I - Inhibition, minimal concentration that inhibited the growth (A. alternata): 125 ppm; I - Inhibition class (S. rolfsii; S. rolfsii): SI (Strong inhibition - 100% of growth inhibition compared to control.); M - Mortality, minimal concentration that killed the fungus (S. rolfsii; [3]): 500 ppm; I - Inhibition, minimal concentration that inhibited the growth (S. rolfsii; S. rolfsii): 125 ppm
